According to patent publication US11365201B2, “Chlorotonil derivatives” (HELMHOLTZ-ZENTRUM FÜR INFEKTIONSFORSCHUNG GMBH, priority 2017, dated 2022):
pIC50: −log10 of the molar value. Converted amounts (≈) assume the structure as drawn. Like-named read-outs stand apart in the source and are kept apart here.

Assays:
Assay type in all cases: cell-based
C. glutamicum DSM-20300 = assay: Antimicrobial assay, MIC by microbroth dilution; settings: 16 h, cation-adjusted Muller-Hinton broth; for MIC: Corynebacterium glutamicum, DSM20300
Experimental: (§1) Bacterial strains used in susceptibility assays (minimum inhibitory concentrations, MIC) were either part of our internal strain collection or were purchased form the German Collection of Microorganisms and Cell Cultures (DSMZ). All compounds were prepared as DMSO stocks and MIC values were determined in standard microbroth dilution assays. Overnight cultures of bacteria were diluted in cation-adjusted Muller-Hinton broth (BBL™, BD) and were adjusted to approximately 10^5 cfu/mL. […] Bacteria were grown in the presence of the derivatives in serial dilution for 16 h at their optimal growth temperature. MIC values were determined according to CLSI guidelines (antibiotic concentration at which no visible bacterial growth is observed).

S. aureus Newman = assay: Antimicrobial assay, MIC by microbroth dilution; settings: 16 h, cation-adjusted Muller-Hinton broth; for MIC: Staphylococcus aureus, NEWMAN
Experimental: as §1

B. subtilis DSM-10 = assay: Antimicrobial assay, MIC by microbroth dilution; settings: 16 h, cation-adjusted Muller-Hinton broth; for MIC: Bacillus subtilis, DSM10
Experimental: as §1

E. coli TolC (+PMBN) = assay: Antimicrobial assay, MIC by microbroth dilution with PMBN; settings: 16 h, 3 μg/mL polymyxin B nonapeptide (PMBN) added
Experimental: Bacterial strains used in susceptibility assays (minimum inhibitory concentrations, MIC) were either part of our internal strain collection or were purchased form the German Collection of Microorganisms and Cell Cultures (DSMZ). All compounds were prepared as DMSO stocks and MIC values were determined in standard microbroth dilution assays. Overnight cultures of bacteria were diluted in cation-adjusted Muller-Hinton broth (BBL™, BD) and were adjusted to approximately 10^5 cfu/mL. For the E. coli culture, 3 μg/mL of polymyxin B nonapeptide (PMBN) was added to increase permeability of the outer membrane as chlorotonils were previously shown to not penetrate into Gram-negative cells. Bacteria were grown in the presence of the derivatives in serial dilution for 16 h at their optimal growth temperature. MIC values were determined according to CLSI guidelines (antibiotic concentration at which no visible bacterial growth is observed).

[1] = tested on: P. falciparum Dd2 (resistant strain); assay: Antiplasmodial in vitro drug sensitivity assay (HRP2-ELISA); settings: P. falciparum Dd2 (resistant strain), read-out: IC50 against P. falciparum Dd2; for IC50: μM
Experimental: (§2) Two laboratory strains of P. falciparum, the chloroquine sensitive 3D7 and the multi-resistant Dd2 were kept in continuous culture as previously described (Trager and Jensen 1976). In brief, parasites were kept in complete culture medium (RPMI 1640, 25 mM HEPES, 2 mM L-glutamine, 50 μg/ml gentamicin and 0.5% w/v AlbuMAX) at 37° C., 5% CO2 and 5% oxygen at 5% hematocrit with daily change of medium. Synchronization was performed with sorbitol twice a week (Lambros and Vanderberg 1979).
(§3) In Vitro Drug Sensitivity Assay
(§4) All compounds were dissolved in DMSO at stock dilutions between 25 and 100 mM; the reference drug chloroquine diphosphate (MW: 515.86) was diluted in distilled water and DMSO, respectively. […] Antiplasmodial activity of the different compounds was tested in a drug sensitivity assay against the two laboratory strains using the histidine-rich protein 2 (HRP2) assay as described previously (Noedl 2005). In brief: 96 well plates were pre-coated with the different compounds in a threefold dilution before ring stage parasites were added in complete culture medium at a hematocrit of 1.5% and a parasitemia of 0.05% in a total volume of 225 μl per well. After three days of incubation plates were frozen until analyzed by HRP2-ELISA. All compounds were evaluated in duplicate in at least two independent experiments.

[2] = tested on: P. falciparum 3D7 (sensitive strain); assay: as above; settings: P. falciparum 3D7 (sensitive strain), read-out: IC50 against P. falciparum 3D7; for IC50: μM
Experimental: as §2, §3, §4

[3] = tested on: L-929 (murine fibroblasts); assay: Cytotoxicity assay (MTT, 5 d); settings: Mus musculus, L929, 120 h
Experimental: Cytotoxicity Assay The murine fibroblast cell line L-929 was obtained from the German Collection of Microorganisms and Cell Cultures (DSMZ) and maintained under conditions recommended by the depositor. Cells were seeded at 6×10^3 cells per well of sterile 96-well plates in 180 μL complete medium and treated with the compounds in serial dilution after 2 h of equilibration. After 5 d, viability was assessed by the MTT method. After 1.5 h incubation with 0.5 mg/mL MTT reagent, cells were washed with PBS and 100 μL of 2-propanol/10 N HCl (250:1) was added. The absorbance at 570 nm was determined on a microplate reader and cell viability was expressed as percentage relative to the respective solvent control. Half-inhibitory concentrations (IC50) were determined by sigmoidal curve fitting.

Gram-positive bacteria = assay: Antimicrobial assay, MIC against a range of Gram-positive bacteria (Table 5)
Experimental: as §1

Row | Compound | MIC (C. glutamicum DSM-20300) [µg/mL] | MIC (S. aureus Newman) [µg/mL] | MIC (B. subtilis DSM-10) [µg/mL] | MIC E. coli TolC (+PMBN) (E. coli TolC (+PMBN)) [µg/mL] | pIC50 ([1]; Plasmodium falciparum) | pIC50 ([2]; Plasmodium falciparum) | pIC50 [3] | further results
1 | C[C@@H]1C(=O)O[C@@H](C)/C=C/C=C\[C@@H](C)[C@@H]2C=C[C@@H]3C[C@@](C)(O)[C@H](OCc4ccccc4)[C@@H](C)[C@H]3[C@@H]2C(=O)C(Cl)(Cl)C1=O [ChA-Epo2-OBn] | 3.2 (≈ 5.3 µM) | 0.4 (≈ 0.663 µM) | 0.4 (≈ 0.663 µM) | >3.2 |  |  |  | 
2 | C[C@@H]1C(=O)O[C@@H](C)/C=C/C=C\[C@@H](C)[C@@H]2C=C[C@@H]3C[C@@](C)(O)[C@H](OCC(O)CO)[C@@H](C)[C@H]3[C@@H]2C(=O)C(Cl)(Cl)C1=O (stereo partly shown) [ChA-Epo2-glycerol] | > 3.2 | 4 (≈ 6.81 µM) | > 3.2 | >3.2 | < 5.72 | < 5.72 |  | 
3 | C[C@@H]1C(=O)O[C@@H](C)/C=C/C=C\[C@@H](C)[C@@H]2C=C[C@]3(C)C[C@]4(C)O[C@@H]4[C@@H](C)[C@H]3[C@@H]2C(=O)C(Cl)(Cl)C1=O [ChA-Epo1] | > 3.2 | 3.2 (≈ 6.28 µM) | 3.2 (≈ 6.28 µM) | >3.2 | 6.64 | 7.02 | 4.99 | 
4 | CCO[C@]1(C)C[C@H]2C=C[C@@H]3[C@@H](C(=O)C(Cl)(Cl)C(=O)[C@H](C)C(=O)O[C@@H](C)/C=C/C=C\[C@H]3C)[C@@H]2[C@H](C)[C@H]1O [ChA-Epo1-OEt] | > 6.4 | > 1.6 | > 6.4 | 1.6 |  |  |  | 
5 | C[C@@H]1C(=O)O[C@@H](C)/C=C/C=C\[C@@H](C)[C@@H]2C=C[C@@H]3C[C@@](C)(Cl)[C@H](O)[C@@H](C)[C@H]3[C@@H]2C(=O)C(Cl)(Cl)C1=O [ChA-Epo1-Cl] | > 3.2 | 3.2 (≈ 6.02 µM) | 3.2 (≈ 6.02 µM) | 3.2 | < 5.68 | < 5.68 |  | 
6 | C[C@@H]1C(=O)O[C@@H](C)/C=C/C=C\[C@@H](C)[C@@H]2C=C[C@@H]3C[C@@](C)(O)[C@H](O)[C@@H](C)[C@H]3[C@@H]2C(=O)C(Cl)(Cl)C1=O [ChA-Epo2-OH] | > 6.4 |  | > 6.4 | >6.4 | < 5.66 | < 5.66 |  | 
7 | CCO[C@@H]1[C@@H](C)[C@H]2[C@@H]3C(=O)C(Cl)(Cl)C(=O)[C@H](C)C(=O)O[C@@H](C)/C=C/C=C\[C@@H](C)[C@@H]3C=C[C@@H]2C[C@@]1(C)O [ChA-Epo2-OEt] | > 3.2 |  | > 3.2 | >3.2 |  |  | < 4.00 | IC50 ([1]; Plasmodium falciparum): > 11 µM; IC50 ([2]; Plasmodium falciparum): > 11 µM
8 | C[C@@H]1C(=O)O[C@@H](C)/C=C/C=C\[C@@H](C)[C@@H]2C=C[C@@H]3C[C@@](C)(O)[C@H](Br)[C@@H](C)[C@H]3[C@@H]2C(=O)C(Cl)(Cl)C1=O [ChA-Epo2-Br] | 0.1 (≈ 0.174 µM) | 0.05 (≈ 0.0868 µM) | 0.05 (≈ 0.0868 µM) | 0.2 | 7.19 | 7.60 | 5.96 | 
9 | CCCCO[C@@H]1[C@@H](C)[C@H]2[C@@H]3C(=O)C(Cl)(Cl)C(=O)[C@H](C)C(=O)O[C@@H](C)/C=C/C=C\[C@@H](C)[C@@H]3C=C[C@@H]2C[C@@]1(C)O [ChA-Epo2-OBu] | > 3.2 | 1.6 (≈ 2.81 µM) | 0.8 (≈ 1.4 µM) | >3.2 |  |  | 4.31 | IC50 ([1]; Plasmodium falciparum): > 11 µM; IC50 ([2]; Plasmodium falciparum): > 11 µM
10 | C[C@H]1[C@H]2[C@@H]3C(=O)/C(Cl)=C(\O)[C@H](C)C(=O)O[C@@H](C)/C=C/C=C\[C@@H](C)[C@@H]3C=C[C@@H]2C[C@@]2(C)O[C@@H]12 [ChB1-Epo] |  |  |  |  |  |  |  | MIC (Gram-positive bacteria; Enterococcus faecalis, E. faecalis 20478, read-out: MIC): 0.8 µg/mL (≈ 1.74 µM); MIC (Gram-positive bacteria; Enterococcus faecalis, E. faecalis 29212, read-out: MIC): 0.8 µg/mL (≈ 1.74 µM); MIC (Gram-positive bacteria; Enterococcus faecium, E. faecium 20477, read-out: MIC): 0.2 µg/mL (≈ 0.434 µM); MIC (Gram-positive bacteria; Enterococcus faecium, VRE, E. faecium 17050 (VRE), read-out: MIC): 32 µg/mL (≈ 69.4 µM); MIC (Gram-positive bacteria; Micrococcus luteus, M. luteus, read-out: MIC): 0.0125 µg/mL (≈ 0.0271 µM); MIC (Gram-positive bacteria; Mycolicibacterium smegmatis, M. smegmatis, read-out: MIC): 16 µg/mL (≈ 34.7 µM); MIC (Gram-positive bacteria; Priestia megaterium, B. megaterium, read-out: MIC): 0.0125 µg/mL (≈ 0.0271 µM); MIC (Gram-positive bacteria; Staphylococcus epidermidis, S. epidermidis 28765, read-out: MIC): 0.05 µg/mL (≈ 0.108 µM); MIC (Gram-positive bacteria; Streptococcus pneumoniae, S. pneumoniae 20566, read-out: MIC): 0.4 µg/mL (≈ 0.868 µM)
11 | CC1=C[C@@H](C)[C@H]2[C@@H]3C(O)=C(Cl)C(=O)[C@H](C)C(=O)O[C@@H](C)/C=C/C=C\[C@@H](C)[C@@H]3C=C[C@@H]2C1 [Chlorotonil B (ChB), Chlorotonil B, reference compound] |  |  |  | >3.2 |  |  |  | pIC50 [1]: 7.20; pIC50 [2]: 7.02; MIC C. glutamicum DSM-20300 (C. glutamicum DSM-20300): 0.1 µg/mL (≈ 0.225 µM); MIC S. aureus Newman (S. aureus Newman): 0.2 µg/mL (≈ 0.449 µM); MIC B. subtilis DSM-10 (B. subtilis DSM-10): 0.2 µg/mL (≈ 0.449 µM); MIC (Gram-positive bacteria; B. megaterium): 0.1 µg/mL (≈ 0.225 µM); MIC (Gram-positive bacteria; E. faecalis 20478): >3.2 µg/mL; MIC (Gram-positive bacteria; E. faecalis 29212): >3.2 µg/mL; MIC (Gram-positive bacteria; E. faecium 17050 (VRE)): >3.2 µg/mL; MIC (Gram-positive bacteria; E. faecium 20477): >3.2 µg/mL; MIC (Gram-positive bacteria; M. luteus): 0.4 µg/mL (≈ 0.899 µM); MIC (Gram-positive bacteria; M. smegmatis): 0.0125 µg/mL (≈ 0.0281 µM); MIC (Gram-positive bacteria; S. epidermidis 28765): >3.2 µg/mL; MIC (Gram-positive bacteria; S. pneumoniae 11865 (PRSP)): >16 µg/mL; MIC (Gram-positive bacteria; S. pneumoniae 20566): 1.6 µg/mL (≈ 3.6 µM)
12 | CO[C@]1(C)C[C@H]2C=C[C@@H]3[C@@H](C(=O)C(Cl)(Cl)C(=O)[C@H](C)C(=O)O[C@@H](C)/C=C/C=C\[C@H]3C)[C@@H]2[C@H](C)[C@H]1O [ChA-Epo1-OMe] | > 6.4 | 1.6 (≈ 3.03 µM) | 6.4 (≈ 12.1 µM) | 0.8 to 1.6 |  |  |  | 
13 | CO[C@@H]1[C@@H](C)[C@H]2[C@@H]3C(=O)C(Cl)(Cl)C(=O)[C@H](C)C(=O)O[C@@H](C)/C=C/C=C\[C@@H](C)[C@@H]3C=C[C@@H]2C[C@@]1(C)O [ChA-Epo2-OMe] | > 3.2 |  | > 3.2 | 3.2 |  |  | < 4.00 | IC50 ([1]; Plasmodium falciparum): > 11 µM; IC50 ([2]; Plasmodium falciparum): > 11 µM
14 | C[C@@H]1C(=O)O[C@@H](C)/C=C/C=C\[C@@H](C)[C@@H]2C=C[C@@H]3C[C@@](C)(O)[C@H](F)[C@@H](C)[C@H]3[C@@H]2C(=O)C(Cl)(Cl)C1=O [ChA-Epo2-F] | 0.4 to 0.8 (≈ 0.776 to 1.55 µM) | 0.2 (≈ 0.388 µM) | 0.2 (≈ 0.388 µM) | 0.8 | 6.48 | 6.87 |  | 
15 | C[C@@H]1C(=O)O[C@@H](C)/C=C/C=C\[C@@H](C)[C@@H]2C=C[C@@H]3C[C@@](C)(O)[C@H](OCCCCO)[C@@H](C)[C@H]3[C@@H]2C(=O)C(Cl)(Cl)C1=O [ChA-Epo2-OBuOH] | 3.2 (≈ 5.46 µM) | > 3.2 | > 3.2 | 1.6 |  |  |  | 
